This is an account of results in patent US6624151B1, “Compounds selectively inhibiting gamma 9 delta 2 T lymphocytes” (Institut National de la Sante et de la Recherche Medicale, priority 1999, dated 2003).

In data set [1] the test system is Tγ9δ2 lymphocytes. The experiment in a line: Induced cytotoxicity test, Tγ9δ2 lymphocyte clone stimulated by antigen BrHPP.
The test system of data set [2] is Tγ9δ2 lymphocytes. The conditions noted are these: FIG. 7 lower. The protocol:
The two left graphs are obtained by stimulating the Tγ9δ2 lymphocytes as in Example 12, by adding first 9 nM of BrHPP antigen into the culture medium, then by adding increasing concentrations (on the abscissa) of the compound according to the invention, BrHPCP. The two right hand graphs are obtained by incorporating first of all 60 μM of the compound according to the invention, BrHPCP, into the culture medium in contact with the Tγ9δ2 lymphocytes, then by adding increasing concentrations (on the abscissa) of the antigen compound stimulating BrHPP. […] The upper graphs give the percentage of residual response in the cultures (induced cytotoxicity test). The lower graphs give the concentration of TNF salted out in pg/ml.

Data set [3] concerns Tγ8δ3 lymphocytes. The conditions noted are these: clone stimulated by a conventional antigen; increasing concentrations; FIG. 8. On the procedure:
A test of induced cytotoxicity is carried out as in Example 12, but with a clone of Tγ8δ3 lymphocyte stimulated by a conventional antigen of these lymphocytes (black circles), and in the presence of the compound according to the invention BrHPCP in increasing concentrations in the culture medium (black squares in FIG. 8).

Where [4] appears, read: read-out: bioactivity (selective inhibition of Tγ9δ2 lymphocytes), concentration of BrHPP equal to 150 μM (so in the source).
Where [5] appears, read: read-out: IC50 concentration leading to the inhibition of 50% of the reference response, lymphocytes stimulated by 80 nM BrHPP, induced cytotoxicity test.

Read-outs that look alike come from different tables or passages of the source.

Consider `CC(O)(CBr)CCOP(=O)(O)C(F)P(=O)(O)O` (stereo not shown) [BrHPCHFP, 3-(bromomethyl)-3-butanol-1-yl-monofluoromethylenediphosphonate], for which, in data set [1] (setting [4]), the IC50 came out at 30 µM.

For `CC1(CCOP(=O)(O)CP(=O)(O)O)CO1` (stereo not shown) [Epox PCP, 3,4-Epoxy-3-methyl-1-butyl-methylenediphosphonate], the IC50 turned out to be 30 µM in data set [1] (setting [5]) and 15 µM in data set [1] (read-out: IC50 concentration, stated in text (formulation example), IC50 defined with BrHPP at 80 nM).

As to `CC(O)(CBr)CCOP(=O)(O)C(F)(F)P(=O)(O)O` (stereo not shown) [BrH PCF2P, 3-(Bromomethyl)-3-butanol-1-yl-difluoromethylenediphosphonate], the IC50 in data set [1] (setting [5]) came to 150 µM. With `C=C(C)CCOP(=O)(O)C(F)(F)P(=O)(O)O` [I PCF2P, 3-Methyl-3-butene-1-yl-difluoromethylenediphosphonate], the IC50 in data set [1] (setting [5]) was 1000 µM. On the same count and under the same terms, then `CC1(CCOP(=O)(O)C(F)(F)P(=O)(O)O)CO1` (stereo not shown) [Epox PCF2P, 3,4-Epoxy-3-methyl-1-butyl-difluoromethylenediphosphonate], with 300 µM; and `CC(O)(CI)CCOP(=O)(O)CP(=O)(O)O` (stereo not shown) [IH PCP, 3-(Iodomethyl)-3-butanol-1-yl-methylenediphosphonate], with 15 µM. For `CC(C)(O)CCOP(=O)(O)CP(=O)(O)O` [tButOH PCP, 3-Methyl-3-butanol-1-yl-methylenediphosphonate], the IC50 in data set [1] (setting [5]) was 1000 µM. “3-Methyl-3-butene-1-yl-methylenediphosphonate [I PCP]”: in data set [1] (setting [5]), the IC50 came to 700 µM. For `CC1(CCOP(=O)(O)C(F)P(=O)(O)O)CO1` (stereo not shown) [Epox PCHFP, 3,4-epoxy-3-methyl-1-butyl-monofluoromethylenediphosphonate], the IC50 in data set [1] (setting [4]) came out at 50 µM.

Take `CC(O)(CBr)CCOP(=O)(O)CP(=O)(O)O` (stereo not shown) [BrH PCP, 3-(Bromomethyl)-3-butanol-1-yl-methylenediphosphonate]: the “inhibition of stimulation by BrHPP (residual response, induced cytotoxicity)” value in data set [1] (9 nM BrHPP first, then increasing BrHPCP, FIG. 7 upper) is recorded as “inhibits the stimulation by BrHPP”. In addition, the “reversibility of inhibition (induced cytotoxicity)” value in data set [1] (60 μM BrHPCP first, then increasing BrHPP, FIG. 7 upper) is “reversible”. The IC50 in data set [1] (setting [5]) was 15 µM. For the same molecule, in data set [2] (9 nM BrHPP first, then increasing BrHPCP), the “inhibition of stimulation by BrHPP (TNF salted out)” value is “inhibits the stimulation by BrHPP”. Besides, in data set [2] (60 μM BrHPCP first, then increasing BrHPP), the “reversibility of inhibition (TNF salted out)” value is “reversible”. The “inhibition of Tγ8δ3 lymphocytes” value in data set [3] was “does not inhibit the Tγ8δ3 lymphocytes”.
